Measured values taken from patent publication US20220105108A1, “PERIVASCULAR ANTI-INFLAMMATORY THERAPY FOR VENOUS THROMBOSIS” (Mercator MedSystems, Inc., priority 2020, published 2022).
Read-outs that look alike come from different tables or passages of the source.

Tests used:
[1] = DANCE-Pilot study and DANCE trial: adventitial dexamethasone after femoropopliteal revascularization; format: in vivo, human; settings: for transient hyperglycemia event: controlled with insulin; for Rate of CD-TLR: 12 months
Excerpt: Provided herein are examples of in vivo human clinical trials using the Bullfrog Micro-Infusion Device for local delivery of dexamethasone. The Bullfrog Micro-Infusion Device was successfully used in the DANCE (Dexamethasone to the Adventitia to Enhance Clinical Efficacy After Femoropopliteal Revascularization)-Pilot study and the DANCE trial in superficial femoral and popliteal arteries.
In the DANCE-Pilot study, 20 subjects were enrolled and treated with the Bullfrog device delivery of dexamethasone sodium phosphate. In the DANCE trial, 283 limbs were enrolled and treated with the Bullfrog device delivery of dexamethasone sodium phosphate. In 3.3% of the subjects enrolled in DANCE, there was no detected contrast medium distribution in the adventitia and perivascular tissues. In one subject in DANCE-Pilot and one subject in DANCE, there was a transient hyperglycemia event reported, which was treated and controlled with insulin therapy. There were no other unexpected adverse device events or suspected unexpected severe adverse reactions reported in the study.
The single-arm DANCE (Dexamethasone to the Adventitia to Enhance Clinical Efficacy After Femoropopliteal Revascularization) trial enrolled 262 subjects (283 limbs) with symptomatic peripheral artery disease (Rutherford category 2 to 4) receiving percutaneous transluminal angioplasty (PTA) (n=124) or atherectomy (ATX) (n=159) in femoropopliteal lesions <15 cm in length. A mixture of dexamethasone/contrast medium (80%/20%) was delivered to the adventitia and perivascular tissues surrounding target lesions in all subjects. Thirty-day assessments included major adverse limb events (MALE) and post-operative death. Twelve-month assessments included primary patency, freedom from clinically driven target lesion revascularization (CD-TLR), Rutherford scoring, and walking impairment questionnaire. […] In the secondary analysis, both the ATX and PTA DANCE groups were noninferior to the 72.3% contemporary performance goal, whether examining the PP (P<0.001 and P<0.004, respectively) or ITT (P<0.002 and P<0.005, respectively) population.

[2] = Local toxicity of dexamethasone administered via Bullfrog device to peripheral and coronary arteries in swine; settings: 28±3 days
Protocol: (§1) A second study was designed to assess the local toxicity of dexamethasone administered via the Bullfrog Micro-Infusion Device in a swine model. The following objectives were met in the study: In each of four subjects, confirmation of the safety of up to 16 mg dexamethasone delivered to the adventitia and perivascular tissue of each of 4 peripheral arteries and 6.4 mg dexamethasone delivered to the adventitia and perivascular tissue of each of 3 coronary arteries (at 3.2 mg/mL with 20% contrast), as compared to normal untreated tissue in two untreated subjects by clinical pathology and histopathology examination, at 28±3 days.

P-selectin = settings: cited from earlier work
vWF = settings: at 24 hours and 48 hours with dexamethasone treatment; cited from earlier work
[3] = in vivo
Protocol: as §1

[4] = 10 mg equivalent dexamethasone phosphate in 3 ml, after angioplasty, 14 days
Protocol: A first study was designed to compare a high dose of dexamethasone (10 mg equivalent dose of dexamethasone phosphate) delivered in 3 ml volume to the perivascular tissue of porcine AV grafts (6 mm ringed PTFE) implanted between femoral artery and femoral vein pairs, bilaterally. Fourteen days after graft implantation, percutaneous transluminal angioplasty (PTA) was performed (7 mm balloon, 16 atmosphere inflation pressure) at two sites per graft: across the graft-vein anastomosis (GVA) and in the proximal vein (PV). Perivascular infusion of either dexamethasone (6 grafts) or placebo (2 grafts) was administered following the PTA procedure. Infusions of 3m1 were always consistent between the 2 grafts in each animal. Animals were euthanized 14 days after the treatment procedure and the graft-vein anastomosis and proximal vein were analyzed by histopathology and histomorphometry to determine adverse effects from the high dose of dexamethasone. The study was not powered to identify differences in stenosis but rather was aimed at determining dexamethasone local toxicity.

With `C[C@@H]1C[C@H]2[C@@H]3CCC4=CC(=O)C=C[C@]4(C)[C@@]3(F)[C@@H](O)C[C@]2(C)[C@@]1(O)C(=O)COP(=O)(O)O` [dexamethasone sodium phosphate] the “other unexpected adverse device events or suspected unexpected severe adverse reactions” value ([1]; DANCE-Pilot and DANCE) was “no other”, the transient hyperglycemia event ([1]; DANCE-Pilot, 20 subjects) was “one subject” and the transient hyperglycemia event ([1]; DANCE) was “one subject”.
For `C[C@@H]1C[C@H]2[C@@H]3CCC4=CC(=O)C=C[C@]4(C)[C@@]3(F)[C@@H](O)C[C@]2(C)[C@@]1(O)C(=O)CO` [dexamethasone, 9-fluoro-11(beta),17,21-trihydroxy-16(alpha)-methylpregna-1,4-diene-3,20-dione], the “30-day MALE+post-operative death events” value ([1]; DANCE trial) was “no 30-day MALE+post-operative death events”, the “Rate of CD-TLR” value ([1]; DANCE-ATX, ITT) was 13.1% and the “primary patency rate at 12 months” value ([1]; DANCE-ATX, intent-to-treat) was 74.8%. For the same compound, the “primary patency rate at 12 months” value ([1]; DANCE-ATX, per-protocol) was 78.4%, the “Rate of CD-TLR” value ([1]; DANCE-ATX, per-protocol) was 10.0% and the “Rate of CD-TLR” value ([1]; DANCE-PTA, ITT) was 13.7%. The “primary patency rate at 12 months” value ([1]; DANCE-PTA, intent-to-treat) was 74.3%, the “primary patency rate at 12 months” value ([1]; DANCE-PTA, per-protocol) was 75.5% and the “Rate of CD-TLR” value ([1]; DANCE-PTA, per-protocol) was 11.0%. For the same compound, the dose-limiting toxicity ([1]; in vivo) was “No dose-limiting toxicity”, the “gross necropsy, injury to the treatment areas” value [2] was “no evidence of injury” and the “local toxicity to the treated vessels (microscopic evaluation)” value [2] was “no evidence of local toxicity”. The “local vascular irritation upon injection” value [2] was “no evidence of local vascular irritation”, the “peripheral organs abnormalities associated with test article” value [2] was “did not reveal any abnormalities” and the “thrombosis or stenosis of treated vessels” value [2] was “no evidence of thrombosis or stenosis”. The “adverse postoperative events leading to early death” value ([2]; up to 83.2 mg per subject) was “None of the animals”, the “P-selectin, time of elevation” value (P-selectin; dexamethasone treatment) was 48 h and the P-selectin levels (P-selectin; high dose 1 mg/kg bid×2 days, healthy males) was “induced elevated P-selectin levels”. The P-selectin levels (P-selectin; low dose 0.04 mg/kg bid×2 days) was “did not induce elevated P-selectin levels”, the vWF (vWF) was “elevated” and the “adverse or toxicologically meaningful changes in the treated vessels” value [3] was “no adverse or toxicologically meaningful changes”. The “histopathology findings of femoral GVA vs perivascular placebo” value [4] was “no differences”.
